In patent US20050288347A1, “Certain triazole-based compounds, compositions, and uses thereof” (priority 2004, published 2005):
“Also recorded” adds a separate entry of the source.

Target: protein kinase
Experiment: HTS ATP-utilizing enzyme assay, off-chip mobility-shift format (Caliper HTS 250)
Format: biochemical, human
Details: test compound 10 μM; for Kinase: kinase(s) for which the compound exhibits protein kinase inhibitory activity, active = greater than three-sigma from the mean activity of inactive compounds; for protein kinase against which the compound exhibits inhibitory activity (Table 3): active = activity greater than three-sigma from the mean of the predominately inactive population for that enzyme
Summary of the method: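 Kinase reactions ran 2.5 h at 20 to 22 °C with test compound at 10 μM, in a HEPES pH 7.5 master buffer containing Triton X-100 and BSA. Peptide substrate and phosphorylated product separated by mobility shift; inhibition normalized to DMSO (0%) and EDTA (100%) controls, with three-sigma thresholds for hits.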

Kinase	protein kinase against which the compound exhibits inhibitory activity (Table 3)	SMILES
DAPK1	–	O=C(O)CSc1nnc(CNc2ccc(F)cc2)n1Cc1ccccc1
CDK2-cyclinA and CDK2-cyclinE and CDK5	–	COc1ccc(-n2c(S)nnc2-c2ccccc2OC)cc1 [5-(2-methoxyphenyl)-4-(4-methoxyphenyl)-4H-1,2,4-triazole-3-thiol]
GSK3-β and GSK3-α and MSK2	–	O=C(CSc1nnc(-c2ccc(O)cc2)n1Cc1ccco1)N1c2ccccc2Sc2ccccc21
–	FLT-3 and PRAK and AURORA-A	Cc1ccc(CCn2c(Cc3ccccc3)nnc2SCc2ccccc2)cc1 [3-benzyl-5-(benzylthio)-4-(4-methylphenethyl)-4H-1,2,4-triazole]
–	FYN	COc1ccc(NCc2nnc(SCc3ccc([N+](=O)[O-])cc3)n2C)cc1
CDK2-cyclinA	–	CCn1c(CNc2cccc(Cl)c2)nnc1SCC(=O)O
AKT1	–	COc1ccc(-c2nnc(SCC(=O)N3CCOCC3)n2-c2ccccc2)cc1OC
–	ROCK2	COc1ccccc1-n1c(SCCO)nnc1-c1cccc(Cl)c1 [2-(5-(3-chlorophenyl)-4-(2-methoxyphenyl)-4H-1,2,4-triazol-3-ylthio)ethanol]
PDGFRR-α	–	COc1ccc(NCc2nnc(SCC(=O)Nc3ccccc3C(F)(F)F)n2-c2ccccc2)cc1
AURORA-A	–	Cn1c(CNc2cccc(C(F)(F)F)c2)nnc1SCC(=O)Nc1ccc2c(c1)OCO2
–	GSK3-β; also recorded: GSK3-α	O=C(O)CCSc1nnc(-c2ccc(O)cc2)n1Cc1ccccc1 [3-(4-benzyl-5-(4-hydroxyphenyl)-4H-1,2,4-triazol-3-ylthio)propanoic acid]
AKT1	–	Cn1c(SCC(N)=O)nnc1-c1ccncc1 [2-(4-methyl-5-(pyridin-4-yl)-4H-1,2,4-triazol-3-ylthio)acetamide]
GSK3-α; also recorded: GSK3-β	–	O=C(CSc1nnc(-c2ccc(O)cc2)n1Cc1ccccc1)N1CCCCC1
GSK3-β; also recorded: GSK3-α	–	CCn1c(S)nnc1CNc1cccc(Cl)c1 [5-((3-chlorophenylamino)methyl)-4-ethyl-4H-1,2,4-triazole-3-thiol]
LCK	–	CC(Sc1nnc(-c2ccc(O)cc2)n1Cc1ccco1)C(=O)Nc1ccc([N+](=O)[O-])cc1 (centres unmarked)
–	GSK3-β; also recorded: GSK3-α	CCc1nnc(SCC=C(C)C)n1Cc1ccc2c(c1)OCO2
–	AURORA-A	CCC(c1ccccc1)c1nnc(SCc2ccc(C(=O)O)cc2)[nH]1 (centres unmarked) [4-((5-(1-phenylpropyl)-4H-1,2,4-triazol-3-ylthio)methyl)benzoic acid]
AURORA-A	–	COc1ccc(-n2c(COc3cccc(C)c3)nnc2SC(C)C(=O)O)cc1 (centres unmarked)
–	FYN	CCOc1ccc(NCc2nnc(SCCN3CCOCC3)n2-c2ccc(C)cc2)cc1
PDGFRR-α and FYN	–	COc1ccc(NCc2nnc(SCC(=O)NCc3ccco3)n2-c2ccccc2OC)cc1
AURORA-A; also recorded: DAPK1	–	COCCn1c(SCC(=O)Nc2ccccc2C(=O)OC)nnc1-c1cc2ccccc2cc1O

Kinase	protein kinase against which the compound exhibits inhibitory activity (Table 3)	SMILES
GSK3-β and SGK1	–	O=C(CSc1nnc(-c2ccc(O)cc2)n1CC1CCCO1)c1ccc2c(c1)OCCO2 (centres unmarked)
SYK	–	COc1ccc(C)cc1NC(=O)CSc1nnc(-c2ccc(Br)cc2)n1-c1ccccc1
–	CDK2-cyclinA	Cc1ccc(CSc2nnc(CSc3nc(C)cc(C)n3)n2Cc2ccco2)cc1
AURORA-A	–	O=C(CSc1nnc(-c2cccnc2)n1-c1ccccc1)CC(=O)Nc1ccccc1
GSK3-α	–	Cc1cccc(-c2nnc(S)n2Cc2ccccc2)c1 [4-benzyl-5-m-tolyl-4H-1,2,4-triazole-3-thiol]
–	FLT-3	COc1ccc(-c2nnc(SCc3ccc(S(C)(=O)=O)cc3)[nH]2)cc1 [3-(4-methoxyphenyl)-5-(4-(methylsulfonyl)benzylthio)-4H-1,2,4-triazole]
–	AURORA-A	c1ccc(CSc2nnc(-c3ccncc3)n2-c2ccccc2)cc1 [4-(5-(benzylthio)-4-phenyl-4H-1,2,4-triazol-3-yl)pyridine]
CDK2-cyclinA	–	CCOC(=O)c1c(NC(=O)CSc2nnc(-c3ccccc3O)n2CCc2ccccc2)sc(C)c1C
GSK3-β; also recorded: MAPKAPK-2	–	Cn1c(SCC(=O)O)nnc1-c1ccc(O)cc1 [2-(5-(4-hydroxyphenyl)-4-methyl-4H-1,2,4-triazol-3-ylthio)acetic acid]
DAPK1	–	Cc1ccc(-n2c(SCC(=O)O)nnc2-c2ccc([N+](=O)[O-])cc2)cc1 [2-(5-(4-nitrophenyl)-4-p-tolyl-4H-1,2,4-triazol-3-ylthio)acetic acid]
CDK1	–	CCOC(=O)CN(C(=O)CSc1nnc(-c2ccncc2)n1CCCN(C)C)c1cccc([N+](=O)[O-])c1
–	GSK3-β; also recorded: GSK3-α	Cc1ccc(-n2c(SCc3nnc(-c4ccccc4)o3)nnc2-c2ccncc2)cc1
–	FLT-3; also recorded: GSK3-β	Clc1ccc(-c2nnc(SCc3ccncc3)[nH]2)cc1Cl [4-((5-(3,4-dichlorophenyl)-4H-1,2,4-triazol-3-ylthio)methyl)pyridine]
FYN	–	CCn1c(COc2ccc(Cl)c(C)c2)nnc1SCC(=O)N1CCCCC1
PDGFRR-α and FYN	–	CCN(CC)S(=O)(=O)c1ccc(-c2nnc(SCC(=O)N3C(C)CCCC3C)n2CC)cc1 (centres unmarked)
–	AURORA-A	CNC(=O)CSc1nnc(-c2ccccc2O)n1-c1ccccc1OC
AURORA-A	–	CCn1c(SCC(=O)Nc2sc3c(c2C#N)CCCC3)nnc1-c1ccc(O)cc1
GSK3-α	–	Cn1c(SCC(=O)Nc2nc3ccccc3s2)nnc1-c1ccco1
–	CDK2-cyclinE	CCn1c(COc2ccc(OC)cc2)nnc1SCc1ccc(Cl)cc1
–	GSK3-α	Cn1cnnc1SCc1csc(Cc2ccc(Cl)c(Cl)c2)n1
FYN	–	COCCCn1c(SCC(=O)Nc2c(C)cccc2C)nnc1-c1ccncc1

Kinase	protein kinase against which the compound exhibits inhibitory activity (Table 3)	SMILES
–	ROCK2	COc1ccccc1-n1c(SCC(O)c2ccccc2)nnc1-c1cccc(Cl)c1 (centres unmarked)
FYN	–	COCCn1c(SCC(=O)OC(C)C)nnc1-c1cc2ccccc2cc1O
FYN	–	CCn1c(COc2cccc3ccccc23)nnc1SCC(=O)NCC1CCCO1 (centres unmarked)
LYNA	–	CCn1c(SC(C)C(=O)O)nnc1-c1cccnc1 (centres unmarked) [2-(4-ethyl-5-(pyridin-3-yl)-4H-1,2,4-triazol-3-ylthio)propanoic acid]
AURORA-A	–	Cc1cc(OCc2nnc(SC(C)C(=O)O)n2-c2ccccc2)ccc1Cl (centres unmarked)
AKT1	–	CCc1ccc(OCc2nnc(S)n2Cc2ccccc2)cc1 [4-benzyl-5-((4-ethylphenoxy)methyl)-4H-1,2,4-triazole-3-thiol]
–	HCK	C=CCSc1nnc(Cn2cnc3ccccc32)n1C
GSK3-α	–	Cc1cccc(NCc2nnc(S)n2-c2ccccc2)c1 [5-((m-toluidino)methyl)-4-phenyl-4H-1,2,4-triazole-3-thiol]
–	CHEK2 and INSR and AURORA-A	COc1cc2c(cc1NC(=O)CSc1nncn1C)oc1ccccc12
LYNA	–	Cc1cc(C)nc(SCc2nnc(SCC#N)n2-c2cccc(Cl)c2)n1
–	GSK3-α	CC(C)=CCSc1nnc(CCC2CCCC2)n1CCCN1CCOCC1
–	PIM-1-KINASE	COc1ccccc1-n1c(SCCN)nnc1-c1cccc(Cl)c1
AURORA-A	–	N#CCSc1nnc(-c2cccnc2)n1Cc1ccccc1 [2-(4-benzyl-5-(pyridin-3-yl)-4H-1,2,4-triazol-3-ylthio)acetonitrile]
LCK	–	O=C(CSc1nnc[nH]1)N1c2ccccc2Sc2ccccc21 [2-(4H-1,2,4-triazol-3-ylthio)-1-(10H-phenothiazin-10-yl)ethanone]
SRC and LCK	–	COc1ccc(-n2c(Cc3ccccc3)nnc2SCC(=O)N2c3ccccc3Sc3ccccc32)cc1
MSK1	–	COc1cccc(OCc2nnc(SCC(=O)O)n2Cc2ccccc2)c1
–	FYN	COc1ccc(NCc2nnc(SCCN3CCCCC3)n2-c2ccc(OC)cc2)cc1
–	PDGFRR-α and FYN	COc1ccc(NCc2nnc(SCc3ccc(Cl)cc3)n2-c2ccccc2)cc1
PAK2	–	CCn1c(SCC(=O)N2CCOCC2)nnc1-c1ccc(S(=O)(=O)N2CCCCC2)cc1
–	ROCK2	COc1ccccc1-n1c(SCC(=O)c2ccc(F)cc2)nnc1-c1cccc(Cl)c1

SMILES	Kinase	protein kinase against which the compound exhibits inhibitory activity (Table 3)
N#CCSc1nnc(-c2ccc(F)cc2)[nH]1 [2-(5-(4-fluorophenyl)-4H-1,2,4-triazol-3-ylthio)acetonitrile]	FLT-3; also recorded: DYRK2; also recorded: GSK3-β	–
Cn1c(SCC(=O)OC2CCCCC2)nnc1-c1cc2ccccc2cc1O	AURORA-A; also recorded: DAPK1; also recorded: c-TAK1	–
CCCCSc1nnc(-c2ccc(F)cc2)[nH]1 [3-(butylthio)-5-(4-fluorophenyl)-4H-1,2,4-triazole]	–	AURORA-A; also recorded: FLT-3; also recorded: DYRK2
CN(C)CCCSc1nnc(-c2ccc(OC(F)(F)F)cc2)[nH]1	–	c-TAK1; also recorded: AURORA-A; also recorded: CHEK2
OCCSc1nnc(-c2ccccc2)[nH]1 [2-(5-phenyl-4H-1,2,4-triazol-3-ylthio)ethanol]	–	FLT-3; also recorded: AURORA-A; also recorded: DYRK2
Cc1ccc(C)c(-n2c(SCC(N)=O)nnc2-c2ccc(O)cc2)c1	GSK3-β; also recorded: GSK3-α; also recorded: CDK2-cyclinE	–
